Experimental data from patent US20140206681A1, “BTK INHIBITORS” (priority 2013, published 2014).
Read-outs that look alike come from different tables or passages of the source.

What was measured:
[1] = biological target: T1, BTK enzyme (recombinant full-length BTK, hBTK) (Homo sapiens, UniProt Q06187); assay: BTK enzyme activity assay, LANCE TR-FRET; type: biochemical; conditions: 50 pM hBTK, 2 μM biotin-A5-peptide, 25 μM ATP; 60 min compound & enzyme incubation; read-out: IC50 BTK activity value
T1 construct: recombinant protein from baculovirus-transfected Sf9 cells: full-length BTK, 6HIS-tag cleaved; 6HIS (cleaved yes); made in house; host or cells: baculovirus-transfected Sf9 cells
T1 sequence (Q06187 whole entry): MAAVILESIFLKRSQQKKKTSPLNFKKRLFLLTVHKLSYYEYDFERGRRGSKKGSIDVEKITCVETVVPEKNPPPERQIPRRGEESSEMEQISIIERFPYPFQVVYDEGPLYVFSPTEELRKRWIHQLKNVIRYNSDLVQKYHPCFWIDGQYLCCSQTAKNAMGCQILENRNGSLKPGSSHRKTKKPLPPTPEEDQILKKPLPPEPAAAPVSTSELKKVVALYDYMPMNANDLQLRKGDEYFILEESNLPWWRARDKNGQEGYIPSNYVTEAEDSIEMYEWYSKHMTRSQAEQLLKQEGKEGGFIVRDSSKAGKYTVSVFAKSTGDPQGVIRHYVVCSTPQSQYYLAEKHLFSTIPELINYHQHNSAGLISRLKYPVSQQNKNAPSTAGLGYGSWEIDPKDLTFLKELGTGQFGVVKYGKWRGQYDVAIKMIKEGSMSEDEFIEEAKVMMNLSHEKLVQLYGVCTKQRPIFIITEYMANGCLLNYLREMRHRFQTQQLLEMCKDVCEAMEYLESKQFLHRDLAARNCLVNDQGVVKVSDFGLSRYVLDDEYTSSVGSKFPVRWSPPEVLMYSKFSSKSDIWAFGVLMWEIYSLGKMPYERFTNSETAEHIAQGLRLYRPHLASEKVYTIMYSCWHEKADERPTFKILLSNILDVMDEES

HeLa cells = assay: [3H]Adenosine uptake functional cellular assay; type: cell-based; conditions: accumulation of [3H]adenosine into HeLa cells, compound range 10 μM to […], read-out: Adenosine uptake inhibition IC50
In short: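 Inhibition of adenosine uptake was measured in HeLa cells (ATCC CCL-2) by following accumulation of tritiated adenosine. Cells were kept overnight at 37° C. with 5% (v/v) CO2, then switched to 40 μL HBSS plus 5% (v/v) FBS. 20 μL of 500 nM [3H]adenosine was added, and uptake was counted on a Topcount NXT reader.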

Row | Compound | IC50 [1] [nM] | IC50 (HeLa cells; Homo sapiens, HeLa) [nM] | IC50 (HeLa cells) [nM]
1 | Cc1cc(NC(=O)c2ccc(-c3nc([C@@H]4CC[C@H]5CCC(=O)N5C4)n4ccnc(N)c34)cc2)nn1C [Example 175, 4-{8-amino-3-[(6R,8aS)-3-oxooctahydroindolizin-6-yl]imidazo[1,5-a]pyrazin-1-yl}-N-(1,5-dimethyl-1H-pyrazol-3-yl)benzamide] | 6.5 | 725 | 
2 | Cc1cnc(NC(=O)c2ccc(-c3nc([C@@H]4CC[C@H]5CCC(=O)N5C4)n4ccnc(N)c34)cc2)s1 [Example 8, 4-(8-amino-3-((6R,8aS)-3-oxooctahydroindolizin-6-yl)imidazo[1,5-a]pyrazin-1-yl)-N-(5-methylthiazol-2-yl)benzamide] | 2.2 | 355 | 
3 | CCOc1cc(C(=O)Nc2cc(C(F)(F)F)ccn2)ccc1-c1nc([C@@H]2CC[C@H]3CCC(=O)N3C2)n2c(C(F)(F)F)cnc(N)c12 [Example 206, 4-{8-amino-3-[(6R,8aS)-3-oxooctahydroindolizin-6-yl]-5-(trifluoromethyl)imidazo [1,5-a]pyrazin-1-yl}-3-ethoxy-N-[4-(trifluoromethyl)pyridin-2-yl]benzamide] | 0.72 | 1110 | 
4 | 4-(8-amino-3-((6R,8aS)-3-oxooctahydroindolizin-6-yl)imidazo[1,5-a]pyrazin-1-yl)-3-(2-methoxyethoxy)-N-(4-(trifluoromethyl)pyridin-2-yl)benzamide [Example 199] | 1.9 |  | 7090
5 | Nc1nccn2c([C@@H]3CC[C@H]4CCC(=O)N4C3)nc(-c3cc(F)c(C(=O)Nc4cc(C(F)(F)F)ccn4)cc3Cl)c12 [Example 193, 4-{8-amino-3-[(6R,8aS)-3-oxooctahydroindolizin-6-yl]imidazo[1,5-a]pyrazin-1-yl}-5-chloro-2-fluoro-N-[4-(trifluoromethyl)pyridin-2-yl]benzamide] | 4.6 | 213 | 
6 | Cn1nc(NC(=O)c2ccc(-c3nc([C@@H]4CC[C@H]5CCC(=O)N5C4)n4c(Cl)cnc(N)c34)cc2)cc1C(F)(F)F [Example 183, 4-(8-amino-5-chloro-3-((6R,8aS)-3-oxooctahydroindolizin-6-yl)imidazo[1,5-a]pyrazin-1-yl)-N-(1-methyl-5-(trifluoromethyl)-1H-pyrazol-3-yl)benzamide] | 0.64 | 470 | 
7 | Nc1ncc(Cl)n2c([C@@H]3CC[C@H]4CCC(=O)N4C3)nc(-c3ccc(C(=O)Nc4cc(C(F)(F)F)ccn4)cc3Cl)c12 [Example 194, 4-{8-amino-5-chloro-3-[(6R,8aS)-3-oxooctahydroindolizin-6-yl]imidazo[1,5-a]pyrazin-1-yl}-3-chloro-N-[4-(trifluoromethyl)pyridin-2-yl]benzamide] | 0.39 | 226 | 
8 | CC1CC(=O)N2C[C@H](c3nc(-c4ccc(C(=O)Nc5cc(C(F)(F)F)ccn5)cc4)c4c(N)nccn34)CC[C@@H]12 (stereo in doubt) [Example 65, 4-{8-amino-3-[(1R,6R,8aS)-1-methyl-3-oxooctahydroindolizin-6-yl]imidazo[1,5-a]pyrazin-1-yl}-N-[4-(trifluoromethyl)pyridin-2-yl]benzamide] | 0.085 | 132 | 
9 | Nc1nccn2c([C@H]3CC[C@H]4CCC(=O)N4C3)nc(-c3ccc(C(=O)Nc4cc(C(F)(F)F)ccn4)cc3)c12 [Example 10, 4-(8-amino-3-((6S,8aS)-3-oxooctahydroindolizin-6-yl)imidazo[1,5-a]pyrazin-1-yl)-N-(4-(trifluoromethyl)pyridin-2-yl)benzamide] | 14.7 | 1340 | 
10 | COC(=O)Nc1nccn2c([C@@H]3CC[C@H]4CCC(=O)N4C3)nc(-c3ccc(C(=O)Nc4cc(C(F)(F)F)ccn4)cc3)c12 [Example 79, methyl (3-((6R,8aS)-3-oxooctahydroindolizin-6-yl)-1-(4-((4-(trifluoromethyl)pyridin-2-yl)carbamoyl)phenyl)imidazo[1,5-a]pyrazin-8-yl)carbamate] | 7.3 | 295 | 
11 | CN1CC[C@H]2CC[C@@H](c3nc(-c4ccc(C(=O)Nc5cc(C(F)(F)F)ccn5)cc4)c4c(N)nccn34)CN2C1=O [Example 111, 4-{8-amino-3-[(4aR,7R)-2-methyl-1-oxooctahydro-1H-pyrido[1,2-c]pyrimidin-7-yl]imidazo[1,5-a]pyrazin-1-yl}-N-[4-(trifluoromethyl)pyridin-2-yl]benzamide] | 5.2 | 458 | 
12 | CCc1ccnc(NC(=O)c2ccc(-c3nc([C@@H]4CC[C@H]5CCC(=O)N5C4)n4c(Cl)cnc(N)c34)c(OC)c2)c1 [Example 207, 4-{8-amino-5-chloro-3-[(6R,8aS)-3-oxooctahydroindolizin-6-yl]imidazo[1,5-a]pyrazin-1-yl}-N-(4-ethylpyridin-2-yl)-3-methoxybenzamide] | 0.58 | 377 | 
13 | COc1cc(C(=O)Nc2cc(C3CC3)ccn2)ccc1-c1nc([C@@H]2CC[C@H]3CCC(=O)N3C2)n2ccnc(N)c12 [Example 38, 4-{8-amino-3-[(6R,8aS)-3-oxooctahydroindolizin-6-yl]imidazo[1,5-a]pyrazin-1-yl}-N-(4-cyclopropylpyridin-2-yl)-3-methoxybenzamide] | 1.9 | 543 | 

Further compounds by falling IC50 [1], results first:

Row | IC50 [1] [nM] | IC50 (HeLa cells; Homo sapiens, HeLa) [nM] | IC50 (HeLa cells) [nM] | Compound
14 | 272 | 3610 |  | Cc1nnc(NC(=O)c2ccc(-c3nc([C@@H]4CC[C@H]5CCC(=O)N5C4)n4ccnc(N)c34)cc2)s1 [Example 182, 4-{8-amino-3-[(6R,8aS)-3-oxooctahydroindolizin-6-yl]imidazo[1,5-a]pyrazin-1-yl}-N-(5-methyl-1,3,4-thiadiazol-2-yl)benzamide]
15 | 27.6 | 5490 |  | CCc1nsc(NC(=O)c2ccc(-c3nc([C@@H]4CC[C@H]5CCC(=O)N5C4)n4ccnc(N)c34)cc2)n1 [Example 178, 4-{8-amino-3-[(6R,8aS)-3-oxooctahydroindolizin-6-yl]imidazo[1,5-a]pyrazin-1-yl}-N-(3-ethyl-1,2,4-thiadiazol-5-yl)benzamide]
16 | 24.6 | 408 |  | Cn1nc(NC(=O)c2cc(Cl)c(-c3nc([C@@H]4CC[C@H]5CCC(=O)N5C4)n4c(Cl)cnc(N)c34)cc2F)cc1C(F)(F)F [Example 192, 4-{8-amino-5-chloro-3-[(6R,8aS)-3-oxooctahydroindolizin-6-yl]imidazo[1,5-a]pyrazin-1-yl}-5-chloro-2-fluoro-N-[1-methyl-5-(trifluoromethyl)-1H-pyrazol-3-yl]benzamide]
17 | 7.2 | 792 |  | CN1C[C@@H]2CC[C@@H](c3nc(-c4ccc(C(=O)Nc5cc(C(F)(F)F)ccn5)cc4)c4c(N)nccn34)CN2C1=O [Example 3, 4-(8-amino-3-((6R,8aS)-2-methyl-3-oxooctahydroimidazo[1,5-a]pyridin-6-yl)imidazo[1,5-a]pyrazin-1-yl)-N-(4-(trifluoromethyl)pyridin-2-yl)benzamide]
18 | 2.6 | 158 |  | Nc1nccn2c([C@H]3CC[C@@H]4CCOC(=O)N4C3)nc(-c3ccc(C(=O)Nc4cc(C(F)(F)F)ccn4)cc3)c12 [Example 93, 4-{8-amino-3-[(4aR,7S)-1-oxohexahydro-3H-pyrido[1,2-c][1,3]oxazin-7-yl]imidazo[1,5-a]pyrazin-1-yl}-N-[4-(trifluoromethyl)pyridin-2-yl]benzamide]
19 | 0.59 | 5000 |  | Cn1nc(NC(=O)c2ccc(-c3nc([C@@H]4CC[C@H]5CCC(=O)N5C4)n4ccnc(N)c34)c(OC3CC3)c2)cc1C(F)(F)F [Example 146, 4-{8-amino-3-[(6R,8aS)-3-oxooctahydroindolizin-6-yl]imidazo[1,5-a]pyrazin-1-yl}-3-(cyclopropyloxy)-N-[1-methyl-5-(trifluoromethyl)-1H-pyrazol-3-yl]benzamide]
20 | 0.52 | 88 |  | Nc1nccn2c([C@@H]3CC[C@H]4CCC(=O)N4C3)nc(-c3ccc(C(=O)Nc4cc(C(F)(F)F)ccn4)c(Cl)c3)c12 [Example 42, 4-{8-amino-3-[(6R,8aS)-3-oxooctahydroindolizin-6-yl]imidazo[1,5-a]pyrazin-1-yl}-2-chloro-N-[4-(trifluoromethyl)pyridin-2-yl]benzamide]
21 | 0.46 | 310 |  | Cc1cc(C(=O)Nc2cc(C(F)(F)F)ccn2)ccc1-c1nc([C@@H]2CC[C@H]3CCC(=O)N3C2)n2ccnc(N)c12 [Example 187, 4-{8-amino-3-[(6R,8aS)-3-oxooctahydroindolizin-6-yl]imidazo[1,5-a]pyrazin-1-yl}-3-methyl-N-[4-(trifluoromethyl)pyridin-2-yl]benzamide]
22 | 0.28 | 726 |  | COc1cc(C(=O)Nc2cc(C(F)(F)F)ccn2)cc(F)c1-c1nc([C@@H]2CC[C@H]3CC(C)(C)C(=O)N3C2)n2ccnc(N)c12 [Example 219, 4-{8-amino-3-[(6R,8aS)-2,2-dimethyl-3-oxooctahydroindolizin-6-yl]imidazo[1,5-a]pyrazin-1-yl}-3-fluoro-5-methoxy-N-[4-(trifluoromethyl)pyridin-2-yl]benzamide]
23 | 0.21 | 71.9 |  | N#Cc1ccnc(NC(=O)c2ccc(-c3nc([C@@H]4CC[C@H]5CCC(=O)N5C4)n4ccnc(N)c34)c(F)c2)c1 [Example 15, 4-{8-amino-3-[(6R,8aS)-3-oxooctahydroindolizin-6-yl]imidazo[1,5-a]pyrazin-1-yl}-N-(4-cyanopyridin-2-yl)-3-fluorobenzamide]
24 | 0.17 | 714 |  | COc1cc(C(=O)Nc2cc(C(F)(F)F)ccn2)cc(F)c1-c1nc([C@@H]2CC[C@H]3CCC(=O)N3C2)n2c(Cl)cnc(N)c12 [Example 217, 4-{8-amino-5-chloro-3-[(6R,8aS)-3-oxooctahydroindolizin-6-yl]imidazo[1,5-a]pyrazin-1-yl}-3-fluoro-5-methoxy-N-[4-(trifluoromethyl)pyridin-2-yl]benzamide]
